Values quoted from earlier work, collected in patent US20130267526A1, “HETEROCYCLIC COMPOUNDS AND THEIR USES” (Amgen, Inc., priority 2010, published 2013).

Columns and labels:
[1] = tested on: mouse model of rheumatoid arthritis; conditions: in vivo
[2] = tested on: model of systemic lupus erythematosis; conditions: in vivo
p110δ = target: T1, p110δ (Homo sapiens, UniProt O00329)
T1 sequence (O00329 1-1044): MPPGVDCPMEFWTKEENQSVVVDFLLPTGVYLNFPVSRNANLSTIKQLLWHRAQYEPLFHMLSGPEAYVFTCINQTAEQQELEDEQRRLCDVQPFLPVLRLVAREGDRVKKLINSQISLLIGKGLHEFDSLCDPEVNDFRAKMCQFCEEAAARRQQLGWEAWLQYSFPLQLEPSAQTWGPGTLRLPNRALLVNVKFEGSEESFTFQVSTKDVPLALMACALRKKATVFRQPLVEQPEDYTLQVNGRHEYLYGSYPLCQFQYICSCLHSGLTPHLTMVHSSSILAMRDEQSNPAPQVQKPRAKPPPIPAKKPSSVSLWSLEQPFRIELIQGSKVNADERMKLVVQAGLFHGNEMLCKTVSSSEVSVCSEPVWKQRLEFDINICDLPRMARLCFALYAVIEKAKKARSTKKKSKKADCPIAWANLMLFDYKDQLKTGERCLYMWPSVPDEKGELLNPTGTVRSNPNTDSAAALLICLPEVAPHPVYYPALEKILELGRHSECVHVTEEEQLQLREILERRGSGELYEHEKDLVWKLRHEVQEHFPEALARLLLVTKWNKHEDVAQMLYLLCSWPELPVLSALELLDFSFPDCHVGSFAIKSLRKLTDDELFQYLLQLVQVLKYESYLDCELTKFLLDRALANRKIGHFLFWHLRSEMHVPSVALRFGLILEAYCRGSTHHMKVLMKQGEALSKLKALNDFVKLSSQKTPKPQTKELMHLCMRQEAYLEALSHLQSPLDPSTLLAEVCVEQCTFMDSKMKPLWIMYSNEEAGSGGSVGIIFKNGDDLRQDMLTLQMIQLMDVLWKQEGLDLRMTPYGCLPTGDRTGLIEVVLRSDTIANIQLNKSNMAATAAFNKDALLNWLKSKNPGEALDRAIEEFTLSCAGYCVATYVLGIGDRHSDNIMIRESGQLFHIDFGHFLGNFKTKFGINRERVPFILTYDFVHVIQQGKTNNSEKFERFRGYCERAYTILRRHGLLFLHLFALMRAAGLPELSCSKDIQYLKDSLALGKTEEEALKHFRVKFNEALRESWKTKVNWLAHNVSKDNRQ

[3] = tested on: passive cutaneous anaphylaxis (PCA); conditions: absence of functional delta (IC 87114 and p110δ D910A mice)
[4] = tested on: ovalbumin-induced airway inflammation

| SMILES | efficacy in a mouse model of rheumatoid arthritis [1] | onset of disease in a model of systemic lupus erythematosis [2] | inhibition of p110δ (p110δ) | activity against any protein kinases tested (protein kinases) | passive cutaneous anaphylaxis (PCA) [3] | inflammation and disease in murine asthma model [4] |
| --- | --- | --- | --- | --- | --- | --- |
| O=C1NC(=O)/C(=C\c2ccc3nccnc3c2)S1 [AS 605240] | efficacious | delay onset of disease | – | – | – | – |
| Cc1ccccc1-n1c(Cn2cnc3c(N)ncnc32)nc2cccc(C)c2c1=O [IC87114] | – | – | high nanomolar range (triple digit) | no activity | significantly reduced | significantly ameliorate |
